Patent publication US20090149452A1, “XANTHINE OXIDASE INHIBITOR” (NIPPON CHEMIPHAR CO., LTD., priority 2005, published 2009)

Experiments:
[1] = biological target: T1, Cow milk Xanthine Oxidase (Bos taurus, UniProt P80457); experiment: In vitro xanthine oxidase inhibition (oxidation of xanthine, absorbance at OD 290 nm); format: biochemical; conditions: xanthine 250 μM, 50 mM phosphate buffer pH 7.5, 30° C. 10 minutes
T1 construct: Cow milk Xanthine Oxidase (Roche); purchased Roche; host or cells: cow milk
T1 sequence (P80457 whole entry): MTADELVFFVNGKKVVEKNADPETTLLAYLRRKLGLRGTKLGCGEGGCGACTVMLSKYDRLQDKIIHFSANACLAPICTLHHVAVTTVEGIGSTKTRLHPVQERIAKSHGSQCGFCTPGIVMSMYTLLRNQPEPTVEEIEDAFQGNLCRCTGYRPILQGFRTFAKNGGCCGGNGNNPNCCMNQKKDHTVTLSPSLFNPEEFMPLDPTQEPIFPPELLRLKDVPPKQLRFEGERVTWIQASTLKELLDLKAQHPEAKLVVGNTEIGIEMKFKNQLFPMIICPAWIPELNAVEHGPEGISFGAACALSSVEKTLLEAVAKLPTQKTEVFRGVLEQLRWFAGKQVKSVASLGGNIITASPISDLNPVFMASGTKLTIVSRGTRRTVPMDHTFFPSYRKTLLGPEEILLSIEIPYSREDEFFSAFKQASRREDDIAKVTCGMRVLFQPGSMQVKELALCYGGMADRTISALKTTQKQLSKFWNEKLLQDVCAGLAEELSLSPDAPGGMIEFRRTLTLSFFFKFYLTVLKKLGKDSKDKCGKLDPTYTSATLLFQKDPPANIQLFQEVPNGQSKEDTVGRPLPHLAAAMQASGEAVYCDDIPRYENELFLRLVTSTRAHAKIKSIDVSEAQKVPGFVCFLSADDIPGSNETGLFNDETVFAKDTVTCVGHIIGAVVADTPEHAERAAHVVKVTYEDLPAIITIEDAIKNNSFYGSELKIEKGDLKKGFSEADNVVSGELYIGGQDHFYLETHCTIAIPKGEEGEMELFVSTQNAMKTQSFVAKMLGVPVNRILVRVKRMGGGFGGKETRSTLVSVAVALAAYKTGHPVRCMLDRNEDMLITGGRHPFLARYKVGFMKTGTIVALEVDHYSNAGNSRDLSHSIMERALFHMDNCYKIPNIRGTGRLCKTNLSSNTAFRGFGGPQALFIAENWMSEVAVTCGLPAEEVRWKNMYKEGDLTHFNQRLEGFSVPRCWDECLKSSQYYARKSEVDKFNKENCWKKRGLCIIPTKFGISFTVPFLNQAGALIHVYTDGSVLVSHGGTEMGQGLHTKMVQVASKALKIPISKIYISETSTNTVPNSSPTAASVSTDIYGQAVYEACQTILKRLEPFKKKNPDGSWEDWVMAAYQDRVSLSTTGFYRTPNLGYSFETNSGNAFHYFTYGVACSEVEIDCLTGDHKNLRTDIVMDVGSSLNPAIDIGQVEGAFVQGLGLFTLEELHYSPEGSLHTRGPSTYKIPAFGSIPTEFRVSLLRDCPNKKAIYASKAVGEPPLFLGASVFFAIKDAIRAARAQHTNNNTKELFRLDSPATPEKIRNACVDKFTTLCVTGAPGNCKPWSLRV
Experimental: The xanthine oxidase inhibiting action (in vitro test) of the compound of the invention was confirmed by measuring inhibition of oxidation of xanthine by xanthine oxidase, as described in Example 26. As is clear from Tables 11 and 12, the compounds of the invention show excellent xanthine oxidase inhibiting action.
The test compound was dissolved in dimethylsulfoxide and diluted with 50 mM phosphate buffer (pH 7.5), to give a solution of a predetermined concentration.
125 μL of each of the solutions of the test compound having different concentrations was added to 1 mL of a solution of Xanthine (SIGMA, 250 μM) in the 50 mM phosphor buffer (pH 7.5). The mixture was then pre-incubated at 30° C. for 5 min. Subsequently, to the pre-incubated mixture was added 125 μL of Cow milk Xanthine Oxidase (Roche) diluted with the 50 mM phosphate buffer (pH 7.5) to 70 mU/mL, and the mixture was subjected to reaction at 30° C. for 10 minutes. Then, 1N hydrochloric acid (200 μL) was added to the reaction mixture to terminate the reaction. Subsequently, absorbance at OD 290 nm was measured by means of a spectrophotometer (Shimadzu UV-160A), to obtain a inhibition ratio. The measured inhibition ration was used to obtain IC50.
The inhibition ratio was calculated according to the following formula:
Inhibition ratio (%)=[1−(B−C)/(A−C)]×100 • A: absorbance of control • B: absorbance measured on a sample containing test compound • C: absorbance of blank

[2] = system: in-plasma uric acid value; experiment: In vivo test: in-plasma uric acid value-inhibition ratio after single oral administration to mouse; conditions: in-plasma uric acid inhibition ratio as activity value relative to TMX-67 (0.3 mg/kg); unfasted ICR mouse, single oral 0.3 mg/kg or 3 mg/kg, blood one hour after administration
Experimental: The xanthine oxidase inhibiting action was further confirmed in viva tests by measuring the uric acid concentration in a plasma obtained from mouse into which the compound of the invention had been orally administered. See Example 27 and Tables 11 and 12. The test compound suspended in 1% methylcellulose solution in an amount of 0.3 mg/kg or 3 mg/kg was administered to unfasted ICR mouse (7 W) by forced single oral administration. The blood was collected from main artery from the mouse under etherization after one hour from the administration. The plasma was separated from the collected blood in the conventional manner. The plasma was then subjected to measurement of uric acid value by the enzyme method by means of an automatic analytical apparatus ([…]), to obtain an in-plasma uric acid value-inhibition ratio in the test sample-administered group as compared with a ratio obtained in the normal group. Based on the obtained in-plasma uric acid inhibition ratio, activity values (%) relative to activity values obtained in the simultaneously conducted tests using TMX-67 (0.3 mg/kg).

SMILES | IC50 [1] | melting point | In Vivo (%) TMX-67 (0.3 mg/kg) [2]
N#Cc1cc(-c2nc3cncnc3s2)ccc1Oc1ccccc1 [Example 2, 2-[3-Cyano-4-phenoxyphenyl)thiazolo[5,4-d]-pyrimidine] | 139 nM | 154 to 156 °C | 114%
N#Cc1cc(-c2nc3cncnc3s2)ccc1Oc1cccnc1 [Example 3, 2-[3-Cyano-4-(3-pyridyloxy)phenyl]thiazolo-[5,4-d]pyrimidine] | 273 nM | 210 to 212 °C | 90%
N#Cc1cc(-c2nc3cncnc3[nH]2)ccc1Oc1ccc(F)cc1 [Example 4, 8-[3-Cyano-4-(4-fluorophenoxy)phenyl]-9H-purine] | 33 nM | > 250 °C | 33%
N#Cc1cc(-c2nc3cncnc3s2)ccc1Oc1ccccc1F [Example 5, 2-[3-Cyano-4-(2-fluorophenoxy)phenyl]-thiazolo[5,4-d]pyrimidine] | 103 nM | 195 to 196 °C | 141%
N#Cc1cc(-c2nc3cncnc3s2)ccc1Oc1cccc(F)c1 [Example 6, 2-[3-Cyano-4-(3-fluorophenoxy)phenyl]-thiazolo[5,4-d]pyrimidine] | 389 nM | 189 to 190 °C | 127%
N#Cc1cc(-c2nc3cncnc3s2)ccc1Oc1ccccc1O [Example 8, 2-[3-Cyano-4-(2-hydroxyphenoxy)phenyl]thiazolo[5,4-d]pyrimidine] | 103 nM | 255 to 256 °C | 52%
CN1CCN(c2ccc(-c3nc4cncnc4s3)cc2C#N)CC1 [Example 14, 2-[3-Cyano-4-(4-methyl-1-piperazinyl)phenyl]thiazolo[5,4-d]pyrimidine] | – | 163 to 165 °C (dec.) | 43%
N#Cc1cc(-c2nc3cncnc3s2)ccc1Oc1ccccc1Cl [Example 17, 2-[4-(2-Chlorophenyloxy)-3-cyanophenyl]thiazolo[5,4-d]pyrimidine] | – | 209 to 211 °C | 86%
N#Cc1cc(-c2nc3cncnc3o2)ccc1Oc1ccc(F)cc1 [Example 18, 2-[3-Cyano-4-(4-fluorophenoxy)phenyl]oxazolo[5,4-d]-pyrimidine] | – | – | 71%
N#Cc1cc(-c2nc3cncnc3s2)ccc1Oc1ccccc1N [Example 20, 2-[4-(2-Aminophenoxy)-3-cyanophenyl]thiazolo[5,4-d]-pyrimidine] | 58 nM | 256 to 259 °C (dec.) | –
Cl.N#Cc1cc(-c2nc3cncnc3s2)ccc1Oc1cccnc1 [Example 21, 2-[3-Cyano-4-(3-pyridyloxy)phenyl]thiazolo-[5,4-d]pyrimidine hydrochloride] | – | 204 to 206 °C | 68%
N#Cc1cc(-c2nc3cncnc3s2)ccc1Oc1ccc(O)cc1 [Example 22, 2-[3-Cyano-4-(4-hydroxyphenoxy)phenyl]thiazolo[5,4-d]pyrimidine] | 72 nM | > 250 °C | –
N#Cc1cc(-c2nc3cncnc3s2)ccc1Oc1ccc(O)cc1.[K] [Example 25, 2-[3-Cyano-4-(4-hydroxyphenoxy)phenyl]thiazolo[5,4-d]pyrimidine potassium salt] | – | – | 35%

The next lines start with results.

IC50 [1] | melting point | SMILES | In Vivo (%) TMX-67 (0.3 mg/kg) [2]
280 nM | 175 to 177 °C | N#Cc1cc(-c2nc3cncnc3s2)ccc1Oc1ccc(F)cc1 [Example 1, 2-[4-(4-fluorophenoxy)-3-cyanophenyl]thiazolo[5,4-d]pyrimidine] | 132%
239 nM | 190 to 195 °C | N#Cc1cc(-c2nc3cncnc3s2)ccc1Sc1ccc(F)cc1 [Example 7, 2-[3-Cyano-4-(4-fluorophenylthio)phenyl]-thiazolo[5,4-d]pyrimidine] | 109%
298 nM | 179 to 180 °C | N#Cc1cc(-c2nc3cncnc3s2)ccc1Oc1ccc(Cl)cc1 [Example 9, 2-[4-(4-Chlorophenyloxy)-3-cyanophenyl]-thiazolo[5,4-d]pyrimidine] | 120%
127 nM | 178 to 180 °C | N#Cc1cc(-c2nc3cncnc3s2)ccc1Sc1ccccc1F [Example 10, 2-[3-Cyano-4-(2-fluorophenylthio)phenyl]-thiazolo[5,4-d]pyrimidine] | 115%
196 nM | 173 to 176 °C | N#Cc1cc(-c2nc3cncnc3s2)ccc1Sc1ccccc1 [Example 11, 2-(3-Cyano-4-phenylthiophenyl)thiazolo[5,4-d]pyrimidine] | 110%
310 nM | 202.6 to 207.6 °C | C=CCOc1ccc(-c2nc3cncnc3s2)cc1C#N [Example 12, 2-(4-Allyloxy-3-cyanophenyl)thiazolo[5,4-d]-pyrimidine] | 52%
– | 232 to 234 °C (dec.) | N#Cc1cc(-c2nc3cncnc3s2)ccc1N1CCOCC1 [Example 13, 2-(3-Cyano-4-morpholin-4-ylphenyl)thiazolo-[5,4-d]pyrimidine] | 40%
– | 171 to 173 °C | N#Cc1cc(-c2nc3cncnc3s2)ccc1Oc1cccc(Cl)c1 [Example 15, 2-[4-(3-Chlorophenyloxy)-3-cyanophenyl]-thiazolo[5,4-d]pyrimidine] | 87%
– | 170 to 175 °C (dec.) | N#Cc1cc(-c2nc3cncnc3s2)ccc1N1CCSCC1 [Example 16, 2-[3-Cyano-4-(thiomorpholin-4-yl)phenyl]-thiazolo[5,4-d]pyrimidine] | 34%
– | 189 to 190 °C | N#Cc1cc(-c2nc3cncnc3s2)ccc1Sc1cccc(F)c1 [Example 19, 2-[3-Cyano-4-(3-fluorophenylthio)phenyl]-thiazolo[5,4-d]pyrimidine] | 171%
